Experimental data published in PMC6522510 (Nature Communications, 2019).
pEC50: −log10 of the molar value. Several values for one entry are separate records, joined by “and”; a condition that tells them apart may be missing. Equal entries are not always repeated. Structures can show the parent of a compound that is named as a salt. Where two headings read alike, the source gives them in different places.

Assays:
[1] = test system: CMK; test: cells; design: species or system AML cell lines (8); Secondary HTS, 10-point dose-response in triplicate, Cell Titer Glo viability, four-parameter fit EC50; conditions: Homo sapiens, CMK, 72 h, read-out: CMK
[2] = test system: MV4-11; test: Secondary dose-response HTS, Cell Titer Glo; assay type: cell-based, human; conditions: Homo sapiens
[3] = test system: ML2; test: Secondary dose-response HTS, Cell Titer Glo; assay type: cell-based, human; conditions: Homo sapiens
[4] = test system: MOLM-13; test: Secondary dose-response HTS, Cell Titer Glo; assay type: cell-based, human; conditions: Homo sapiens
[5] = test system: M07e; test: cells; design: species or system AML cell lines (8); Secondary HTS, 10-point dose-response in triplicate, Cell Titer Glo viability, four-parameter fit EC50; conditions: M-07e, 72 h, read-out: M07e
[6] = test system: CHRF288-11; test: cells; design: species or system AML cell lines (8); Secondary HTS, 10-point dose-response in triplicate, Cell Titer Glo viability, four-parameter fit EC50; conditions: 72 h, read-out: CHRF288-11
[7] = test system: CMS; test: Secondary dose-response HTS, Cell Titer Glo; assay type: cell-based, human; conditions: Homo sapiens, HTS, read-out: average effective concentration, CMS
[8] = test system: U937; test: Secondary dose-response HTS, Cell Titer Glo; assay type: cell-based, human; conditions: Homo sapiens, U-937; secondary high-throughput screen; U937; read-out: average effective concentration, U937
[9] = test system: MOLM-13; test: cells; design: species or system AML cell lines (8); Secondary HTS, 10-point dose-response in triplicate, Cell Titer Glo viability, four-parameter fit EC50; conditions: Homo sapiens, MOLM-13, 72 h, read-out: MOLM-13
[10] = test system: CMK; test: Secondary dose-response HTS, Cell Titer Glo; assay type: cell-based, human; conditions: Homo sapiens, CMK, read-out: average effective concentration, CMK
[11] = test system: U937; test: cells; design: species or system AML cell lines (8); Secondary HTS, 10-point dose-response in triplicate, Cell Titer Glo viability, four-parameter fit EC50; conditions: Homo sapiens, U-937, 72 h, read-out: U937
[12] = test system: CHRF288-11; test: Secondary dose-response HTS, Cell Titer Glo; assay type: cell-based, human; conditions: Homo sapiens, HTS, read-out: average effective concentration, CHRF288-11
[13] = test system: CMS; test: cells; design: species or system AML cell lines (8); Secondary HTS, 10-point dose-response in triplicate, Cell Titer Glo viability, four-parameter fit EC50; conditions: 72 h, read-out: CMS
[14] = test system: MV4-11; test: cells; design: species or system AML cell lines (8); Secondary HTS, 10-point dose-response in triplicate, Cell Titer Glo viability, four-parameter fit EC50; conditions: Homo sapiens, MV4-11, 72 h, read-out: MV4-11
[15] = test system: MV4-11; design: species or system AML cell lines (8); Primary HTS, single concentration about 10 uM, Cell Titer Glo viability; log10 luminescence, per cent inhibition relative to cycloheximide control; conditions: 72 h, relative to cycloheximide control, log10 luminescence, inhibitor, MV4-11 %inh, 10 µM
[16] = test system: CMS; design: species or system AML cell lines (8); Primary HTS, single concentration about 10 uM, Cell Titer Glo viability; log10 luminescence, per cent inhibition relative to cycloheximide control; conditions: 72 h, relative to cycloheximide control, log10 luminescence, inhibitor, CMS %inh, 10 µM
[17] = test system: ML-2; design: species or system AML cell lines (8); Primary HTS, single concentration about 10 uM, Cell Titer Glo viability; log10 luminescence, per cent inhibition relative to cycloheximide control; conditions: 72 h, relative to cycloheximide control, log10 luminescence, inhibitor, ML-2 %inh, 10 µM
[18] = test system: M07e; design: species or system AML cell lines (8); Primary HTS, single concentration about 10 uM, Cell Titer Glo viability; log10 luminescence, per cent inhibition relative to cycloheximide control; conditions: 72 h, relative to cycloheximide control, log10 luminescence, inhibitor, M07e %inh, 10 µM
[19] = test system: CHRF288-11; design: species or system AML cell lines (8); Primary HTS, single concentration about 10 uM, Cell Titer Glo viability; log10 luminescence, per cent inhibition relative to cycloheximide control; conditions: 72 h, relative to cycloheximide control, log10 luminescence, inhibitor, CHRF288-11 %inh, 10 µM
[20] = test system: CMK; design: species or system AML cell lines (8); Primary HTS, single concentration about 10 uM, Cell Titer Glo viability; log10 luminescence, per cent inhibition relative to cycloheximide control; conditions: 72 h, relative to cycloheximide control, log10 luminescence, inhibitor, CMK %inh, 10 µM
[21] = secondary high-throughput screen, MV4-11, read-out: average effective concentration, MV4-11
[22] = secondary high-throughput screen, ML-2, read-out: average effective concentration, ML-2
[23] = secondary high-throughput screen, MOLM-13, read-out: average effective concentration, MOLM-13
[24] = secondary high-throughput screen, CMS
[25] = secondary high-throughput screen, CHRF288-11
[26] = secondary high-throughput screen

Row | Compound | pEC50 [2, 21] | pEC50 [3, 22] | pEC50 [4, 23] | pEC50 [5] | pEC50 [7, 24] | pEC50 [8] | pEC50 [10] | pEC50 [7] | pEC50 [12, 25] | pEC50 [10, 26] | other results
1 | CN1CC[C@H](c2c(O)cc(O)c3c(=O)cc(-c4ccccc4Cl)oc23)[C@H](O)C1 [ALVOCIDIB] | 7.30 | 7.33 | 7.44 | < 5.00 | 7.19 | 7.54 | – | – | – | – | pEC50 [1]: < 5.00; pEC50 [6]: < 5.00
2 | CC(C)c1cc(C(=O)N2Cc3ccc(CN4CCN(C)CC4)cc3C2)c(O)cc1O [AT13387] | 8.10 | 7.64 | – | < 5.00 | – | – | 7.96 | 7.47 | 7.41 | – | pEC50 [9]: 8.03; pEC50 [11]: < 5.00
3 | NC(=O)Nc1cc(-c2cccc(F)c2)sc1C(=O)N[C@H]1CCCNC1 [AZD7762] | 9.00 | 7.59 | < 5.00 | < 5.00 | 6.17 | 7.20 | – | – | 6.96 | 7.35 | –
4 | COc1c(C)cnc(Cn2cnc3c(Cl)nc(N)nc32)c1C [BIIB021] | 7.25 | 7.08 | 7.26 | < 5.00 | 6.96 | 7.52 | – | – | 7.04 | 7.17 | –
5 | Nc1cc(C(F)(F)F)c(-c2cc(N3CCOCC3)nc(N3CCOCC3)n2)cn1 [BUPARLISIB] | 5.74 | 5.85 | 5.82 | < 5.00 | – | 5.52 | 5.39 | 5.80 | 5.24 | – | –
6 | COCc1c(C(C)C)nc(C(C)C)c(/C=C/[C@@H](O)C[C@@H](O)CC(=O)O)c1-c1ccc(F)cc1 [CERIVASTATIN] | 6.47 | 5.80 | 6.05 | < 5.00 | 5.17 | 5.64 | – | – | 7.31 | 6.80 | –
7 | CC(C)c1cc(-c2n[nH]c(=O)n2-c2ccc3c(ccn3C)c2)c(O)cc1O [GANETESPIB] | 9.00 | 8.27 | 8.62 | < 5.00 | – | 8.80 | 8.64 | 8.00 | 8.15 | – | pEC50 [13]: 8.02
8 | C[C@@H](Oc1cc(-n2cnc3ccc(CN4CCN(C)CC4)cc32)sc1C(N)=O)c1ccccc1C(F)(F)F [GSK461364] | 6.23 | 7.23 | 6.77 | < 5.00 | – | 7.05 | 6.12 | 5.00 | – | – | pEC50 [6]: < 5.00
9 | OC(c1cc(C(F)(F)F)nc2c(C(F)(F)F)cccc12)C1CCCCN1 (stereo not shown) [MEFLOQUINE] | – | < 5.00 | – | < 5.00 | < 5.00 | < 5.00 | – | – | < 5.00 | – | pEC50 [1]: < 5.00; pEC50 [9]: < 5.00; pEC50 [14]: < 5.00
10 | CNC(=O)c1nn(C)c2c1C(C)(C)Cc1cnc(Nc3ccc(N4CCN(C)CC4)cc3)nc1-2 [MILCICLIB] | 9.00 | 5.25 | 9.00 | < 5.00 | – | 5.28 | 7.54 | 5.19 | 5.66 | – | –
11 | CC1(C)CCC(c2ccc(Cl)cc2)=C(CN2CCN(c3ccc(C(=O)NS(=O)(=O)c4ccc(N[C@H](CCN5CCOCC5)CSc5ccccc5)c(S(=O)(=O)C(F)(F)F)c4)cc3)CC2)C1 [NAVITOCLAX] | 7.17 | 5.15 | 5.29 | < 5.00 | – | < 5.00 | 5.92 | 7.54 | < 5.00 | – | MV4-11 %inh [15]: 77.41% and 95.61%; CMS %inh [16]: 98.49% and 71.04%; ML-2 %inh [17]: 57.75% and 49.42%; M07e %inh [18]: 48.21% and 73.78%; CHRF288-11 %inh [19]: 23.49% and 12.88%; CMK %inh [20]: 132.4% and 82.78%
12 | Cc1cnc(NC(=O)Nc2cc(Br)c(C)cc2OC[C@@H]2CNCCO2)cn1 [RABUSERTIB] | 6.30 | 7.13 | 6.40 | < 5.00 | 5.07 | 5.48 | – | – | 5.68 | 6.35 | –
13 | COc1cc(F)c(F)c(Nc2ccc(I)cc2F)c1NS(=O)(=O)C1(C[C@H](O)CO)CC1 [REFAMETINIB] | – | 9.00 | 5.92 | < 5.00 | < 5.00 | – | – | – | – | 5.07 | pEC50 [14]: < 5.00; pEC50 [11]: < 5.00; pEC50 [6]: < 5.00
14 | Cn1cc(-c2cnn3c(N)c(Br)c([C@@H]4CCCNC4)nc23)cn1 [SCH-900776] | – | – | – | < 5.00 | – | – | 6.89 | < 5.00 | – | – | pEC50 ([2]; MV4-11, read-out: average effective concentration, MV4-11): 7.08; pEC50 ([3]; ML-2, read-out: average effective concentration, ML-2): 7.28; pEC50 [11]: < 5.00; pEC50 ([4]; MOLM-13, read-out: average effective concentration, MOLM-13): 7.29; pEC50 [12]: 6.33
15 | C=CCNC1=C2C[C@@H](C)C[C@H](OC)[C@H](O)[C@@H](C)/C=C(\C)[C@H](OC(N)=O)[C@@H](OC)/C=C\C=C(/C)C(=O)NC(=CC1=O)C2=O [TANESPIMYCIN] | 6.92 | 7.00 | 7.10 | < 5.00 | 6.74 | 7.30 | – | – | 5.89 | 6.55 | –
16 | CC[C@]1(O)C[C@@H]2CN(CCc3c([nH]c4ccccc34)[C@@](C(=O)OC)(c3cc4c(cc3OC)N(C)[C@H]3[C@@](O)(C(=O)OC)[C@H](OC(C)=O)[C@]5(CC)C=CCN6CC[C@]43[C@@H]65)C2)C1 [VINBLASTINE SULFATE] | 7.25 | 6.24 | 6.66 | < 5.00 | 6.47 | 6.80 | – | – | 6.24 | 5.42 | –
17 | CCC1=C[C@@H]2CN(C1)Cc1c([nH]c3ccccc13)[C@@](C(=O)OC)(c1cc3c(cc1OC)N(C)[C@H]1[C@@](O)(C(=O)OC)[C@H](OC(C)=O)[C@]4(CC)C=CCN5CC[C@]31[C@@H]54)C2 [VINORELBINE] | 7.49 | 7.40 | 7.54 | < 5.00 | – | 7.49 | – | 6.62 | 5.68 | – | pEC50 [1]: < 5.00
18 | COCCn1c2c([n+](Cc3cnccn3)c1C)C(=O)c1ccccc1C2=O [YM-155] | 7.70 | 7.68 | 8.00 | < 5.00 | 7.04 | 7.66 | – | – | 5.64 | 7.51 | –
